Among the test systems are BT-549 breast; COLO 205 colon; EKVX NSCLC; HL-60(TB) leukemia; MOLT-4 leukemia; NCI-H23 lung; NCI-H460 lung; RPMI-8226 leukemia; SK-OV-3 ovarian; T-47D breast.
Holding throughout (experiment): DTP human tumour cell line panel, 48 h

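All cell lines were grown in 96-well plates and treated with compound for 48 hours. Here, GI50 denotes the concentration required for 50% inhibition of growth. Definition used: TGI = concentration required for complete inhibition of growth.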

For orientation: GI50 means the concentration that inhibits growth by half. For orientation: TGI means the concentration at which net growth stops. Regarding `Cc1nc(/N=C(\N)NC(=O)Nc2ccccc2Cl)sc1C`, the GI50 in the experiment with BT-549 breast is 0.637 µM; with COLO 205 colon it was 0.474 µM; with EKVX NSCLC it was 0.626 µM; in the experiment on HL-60(TB) leukemia it was 0.331 µM; in the experiment on MOLT-4 leukemia it was 0.492 µM; in the experiment with NCI-H23 lung, 0.687 µM. Moreover, the GI50 was 0.367 µM with NCI-H460 lung, 0.406 µM in the experiment with RPMI-8226 leukemia, 0.735 µM in the experiment with SK-OV-3 ovarian and 0.519 µM in the experiment with T-47D breast. The TGI in the experiment on BT-549 breast is 10.3 µM; with COLO 205 colon it was 4.57 µM; with EKVX NSCLC it was more than 100 µM; with HL-60(TB) leukemia, 28.9 µM; with MOLT-4 leukemia, more than 100 µM; in the experiment on NCI-H23 lung it was more than 74.9 µM. Besides, the TGI is 1.62 µM in the experiment on NCI-H460 lung, 7.65 µM with RPMI-8226 leukemia, 5.54 µM with SK-OV-3 ovarian and more than 100 µM in the experiment on T-47D breast.
Turning to `C=C1C(=O)O[C@@H]2C[C@@H]1CC[C@@]1(C)O[C@@H]1CC[C@@]1(C)O[C@@H]1CC[C@@]2(C)O`, the GI50 with BT-549 breast is 22.1 µM; with COLO 205 colon, 14.4 µM; in the experiment with EKVX NSCLC it was 32.3 µM; with HL-60(TB) leukemia it was 10.3 µM; in the experiment on MOLT-4 leukemia, 10.1 µM; in the experiment on NCI-H23 lung it was 1.58 µM. In addition, the GI50 in the experiment with NCI-H460 lung was 60.3 µM; in the experiment on RPMI-8226 leukemia, 14.4 µM; in the experiment on SK-OV-3 ovarian it was 30.6 µM; in the experiment with T-47D breast, 2.09 µM. In addition, the TGI is 59.6 µM in the experiment with BT-549 breast; 31 µM in the experiment on COLO 205 colon; more than 100 µM in the experiment on EKVX NSCLC; 32.8 µM in the experiment on HL-60(TB) leukemia; 32.3 µM in the experiment with MOLT-4 leukemia; 3.14 µM in the experiment with NCI-H23 lung. Moreover, the TGI was more than 100 µM in the experiment with NCI-H460 lung, 79.7 µM in the experiment on RPMI-8226 leukemia, more than 100 µM in the experiment with SK-OV-3 ovarian and 17 µM in the experiment with T-47D breast.
`CC1(C)CC2C=C(C=O)C3(C=O)CC3(C)C2C1` (stereo not drawn): the TGI was 3.37 µM in the experiment on BT-549 breast; 4.25 µM in the experiment on COLO 205 colon; 7.5 µM in the experiment with EKVX NSCLC; more than 100 µM in the experiment with HL-60(TB) leukemia; 1.15 µM in the experiment on MOLT-4 leukemia; 3.99 µM in the experiment with NCI-H23 lung. For the same compound, the TGI in the experiment on NCI-H460 lung amounted to 10.6 µM; with RPMI-8226 leukemia it was 3.95 µM; in the experiment on SK-OV-3 ovarian it was 16.2 µM; in the experiment with T-47D breast, 9.02 µM.
On to `c1ccc(-c2nn(-c3ccccc3)[n+](-c3cccc4ccccc34)n2)cc1`, for which the GI50 was 1.85 µM in the experiment with BT-549 breast; 0.313 µM in the experiment on COLO 205 colon; 0.583 µM in the experiment on EKVX NSCLC; 0.386 µM in the experiment on HL-60(TB) leukemia; 1.3 µM in the experiment with MOLT-4 leukemia; 0.994 µM in the experiment on NCI-H23 lung. For the same compound, the GI50 in the experiment with NCI-H460 lung was 1.43 µM; in the experiment with RPMI-8226 leukemia, 0.472 µM; in the experiment on SK-OV-3 ovarian, 4.61 µM; in the experiment on T-47D breast, 0.825 µM. In addition, the TGI turned out to be 17.9 µM in the experiment on BT-549 breast; 1.28 µM in the experiment on COLO 205 colon; 33.3 µM with EKVX NSCLC; 2.06 µM with HL-60(TB) leukemia; 15.8 µM with MOLT-4 leukemia; 12.8 µM in the experiment on NCI-H23 lung. Moreover, the TGI was 10.4 µM in the experiment on NCI-H460 lung, more than 100 µM in the experiment with RPMI-8226 leukemia, more than 100 µM in the experiment on SK-OV-3 ovarian and 17.4 µM in the experiment on T-47D breast.
`N#Cc1c(-c2ccccc2)cc(-c2ccccc2)n(CCCCC(=O)NO)c1=O`: the GI50 was 3.65 µM in the experiment on BT-549 breast; 2.74 µM in the experiment with COLO 205 colon; 2.82 µM in the experiment on EKVX NSCLC; 2.39 µM in the experiment on HL-60(TB) leukemia; 1.84 µM in the experiment on MOLT-4 leukemia; 2.4 µM in the experiment on NCI-H23 lung. Besides, the GI50 with NCI-H460 lung was 3.71 µM; in the experiment with RPMI-8226 leukemia it was 1.57 µM; in the experiment on SK-OV-3 ovarian, 2.06 µM; in the experiment on T-47D breast, 1.93 µM. For the same compound, the TGI with BT-549 breast turned out to be 16.4 µM; in the experiment with COLO 205 colon, 7.76 µM; in the experiment on EKVX NSCLC, 11.7 µM; with HL-60(TB) leukemia it was 6.84 µM; with MOLT-4 leukemia, 8.83 µM; with NCI-H23 lung it was 6.94 µM. Besides, the TGI in the experiment with NCI-H460 lung came out at 15.2 µM; in the experiment with RPMI-8226 leukemia, 4.61 µM; in the experiment on SK-OV-3 ovarian, 5 µM; with T-47D breast, 7.99 µM.
For `NC(=O)C(NC=O)c1ccccc1` (stereo not drawn), the TGI in the experiment with BT-549 breast, with COLO 205 colon, in the experiment on EKVX NSCLC, in the experiment on HL-60(TB) leukemia, with MOLT-4 leukemia and with NCI-H23 lung was more than 100 µM each time. Also, the TGI in the experiment on NCI-H460 lung, with SK-OV-3 ovarian and in the experiment on T-47D breast was more than 100 µM in each case.
With `CN1c2ccccc2S(=O)(=O)n2c(COc3ccc(Cl)cc3)nnc21`, the TGI with BT-549 breast, with COLO 205 colon, with EKVX NSCLC, in the experiment on HL-60(TB) leukemia, with MOLT-4 leukemia and in the experiment on NCI-H23 lung was more than 100 µM throughout. The TGI in the experiment with NCI-H460 lung, in the experiment on SK-OV-3 ovarian and in the experiment with T-47D breast was more than 100 µM throughout.

The values are drawn from PubChem BioAssay (NCI).
